Test results taken from PubChem BioAssay (NCI).
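Tested at 5 concentrations; 48 h exposure; 96-well plates; endpoints linearly interpolated, else capped at highest concentration. Here, GI50 denotes the concentration required for 50% inhibition of growth. At the TGI there is no net growth.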

Experiments:
Assay in all cases: NCI-60 cell line screen, 48 h
[1] = tested on: SR leukemia
[2] = tested on: OVCAR-4 ovarian
[3] = tested on: TK-10 renal
[4] = tested on: SNB-19 CNS
[5] = tested on: SN12C renal
[6] = tested on: CAKI-1 renal
[7] = tested on: MALME-3M melanoma
[8] = tested on: SK-OV-3 ovarian
[9] = tested on: PC-3 prostate
[10] = tested on: NCI-H522 lung

O=C(O)CC/C(=N\Nc1nsc2ccccc12)c1ccccc1
TGI [1]: 93.3 µM
TGI [2]: > 100 µM
TGI [3]: > 100 µM
TGI [4]: > 100 µM
TGI [5]: > 100 µM

C[C@]12CC[C@@H]3c4ccc(O)cc4CC[C@H]3[C@@H]1C/C(=C\c1ccncc1)C2=O
TGI [1]: > 100 µM
TGI [2]: > 100 µM
TGI [3]: > 100 µM
TGI [6]: > 100 µM
TGI [4]: > 100 µM
TGI [7]: 54.8 µM
TGI [8]: > 100 µM
TGI [9]: > 100 µM

COCCOCOc1ccc(OCc2ccccc2)cc1
TGI [2]: > 51 µM
TGI [6]: > 100 µM
TGI [4]: > 100 µM
TGI [7]: > 100 µM
TGI [5]: > 100 µM
TGI [8]: > 100 µM

COC(=O)C1C(C(=O)OC)N(Cc2ccccc2)C(=O)N1Cc1ccccc1 (stereo unspecified)
TGI [2]: > 100 µM
TGI [3]: > 100 µM
TGI [10]: 96.3 µM
TGI [6]: > 100 µM
TGI [4]: > 100 µM
TGI [7]: > 100 µM
TGI [5]: > 100 µM
TGI [8]: > 100 µM
TGI [9]: > 100 µM

C=CCN1C(=O)/C(=C/c2ccccc2)N=C1SC1OC(COC(=O)c2ccccc2)C(OC(=O)c2ccccc2)C1OC(=O)c1ccccc1 (stereo unspecified)
TGI [1]: > 100 µM
TGI [2]: > 100 µM
TGI [3]: > 100 µM
TGI [10]: 41.5 µM
TGI [6]: > 100 µM
TGI [7]: > 100 µM
TGI [8]: > 100 µM
TGI [9]: > 100 µM

C/C(CCOC1CCCCO1)=C(\C)[Si](C)(C)C (stereo unspecified)
TGI [1]: > 100 µM
TGI [3]: > 100 µM
TGI [10]: > 100 µM
TGI [4]: > 100 µM
TGI [7]: > 100 µM
TGI [5]: > 100 µM

COc1ccc2[nH]c(O)c(/C=c3/cc4c(c(-c5cc(OC)c(OC)c(OC)c5)n3)=Nc3ccccc3-4)c2c1
GI50 [1]: 1.59 µM
TGI [1]: 8.79 µM
GI50 [2]: 4.41 µM
TGI [2]: > 100 µM
GI50 [3]: 18.5 µM
TGI [3]: > 100 µM
GI50 [10]: 5.03 µM
TGI [10]: > 100 µM
GI50 [6]: > 100 µM
TGI [6]: > 100 µM
GI50 [4]: 26 µM
TGI [4]: > 100 µM
GI50 [7]: 63.6 µM
TGI [7]: > 100 µM
GI50 [5]: 61.2 µM
TGI [5]: > 100 µM
GI50 [8]: > 100 µM
TGI [8]: > 100 µM
GI50 [9]: 5.47 µM
TGI [9]: > 100 µM

C=C(C(=O)C(=O)Oc1ccc(Cl)cc1)C(=O)c1ccc(C)cc1
TGI [1]: 57.6 µM
TGI [2]: > 100 µM
TGI [3]: > 100 µM
TGI [10]: 40 µM
TGI [6]: > 100 µM
TGI [4]: > 100 µM
TGI [7]: > 100 µM
TGI [5]: > 100 µM
TGI [8]: > 100 µM

CC(C)OP(=O)(OC(C)C)c1c(Nc2ccccc2)n[nH]c1N
TGI [1]: > 100 µM
TGI [2]: > 100 µM
TGI [3]: > 100 µM
TGI [10]: > 100 µM
TGI [6]: > 100 µM
TGI [4]: > 100 µM
TGI [7]: > 100 µM
TGI [8]: > 100 µM
TGI [9]: > 100 µM

C#CCCCCC#Cc1ccccc1C(=O)OC
TGI [1]: 29.2 µM
TGI [2]: > 100 µM
TGI [3]: > 100 µM
TGI [4]: > 100 µM
TGI [7]: > 100 µM
TGI [5]: > 100 µM
TGI [8]: > 100 µM

CCOC(=O)c1csc(NC(=O)CCN(CC)CC)n1
TGI [1]: > 100 µM
TGI [2]: > 100 µM
TGI [3]: 62.8 µM
TGI [6]: 42.8 µM
TGI [4]: > 100 µM
TGI [8]: > 100 µM
TGI [9]: > 100 µM

CC1=C(O)C(=O)[C@@H]2O[C@@H]2C1=O
TGI [2]: 28.5 µM
TGI [10]: 4.56 µM
TGI [6]: 16.7 µM
TGI [4]: 115 µM
TGI [7]: 17.2 µM
TGI [5]: 52.4 µM
TGI [8]: 107 µM
